“Also recorded” adds a separate entry of the source. Values belong to the compound of their own block, whether it stands above or below them.
Columns and labels:
mice [1] = assay: Carrageenan-induced lung inflammation; type: in vivo; details: carrageenan 2%
Protocol: The chest was carefully opened and the pleural cavity was rinsed with 1 mL of saline solution containing heparin (5 U/mL). The exudate and washing solution were removed by aspiration and the total volume of the fluid was measured. Any exudate that was contaminated with blood was discarded. The amount of exudate was calculated by subtracting the volume of washing fluid injected from the total volume recovered.

mice [2] = assay: Carrageenan-induced inflammation (paw edema, heat hyperalgesia); type: in vivo; details: compound 5 3-30 mg/kg p.o.
Rat AC (r-AC) = target: T1, Rat AC (r-AC) (Rattus norvegicus, UniProt Q6P7S1); assay: Rat AC (r-AC) assay; type: biochemical
T1 construct: V5 (C); His (C); made in house; host or cells: HEK293 cells transfected with pEF6-rAC-V5/His, G418 selected; soluble lysosomal fraction
T1 sequence (Q6P7S1 21-394): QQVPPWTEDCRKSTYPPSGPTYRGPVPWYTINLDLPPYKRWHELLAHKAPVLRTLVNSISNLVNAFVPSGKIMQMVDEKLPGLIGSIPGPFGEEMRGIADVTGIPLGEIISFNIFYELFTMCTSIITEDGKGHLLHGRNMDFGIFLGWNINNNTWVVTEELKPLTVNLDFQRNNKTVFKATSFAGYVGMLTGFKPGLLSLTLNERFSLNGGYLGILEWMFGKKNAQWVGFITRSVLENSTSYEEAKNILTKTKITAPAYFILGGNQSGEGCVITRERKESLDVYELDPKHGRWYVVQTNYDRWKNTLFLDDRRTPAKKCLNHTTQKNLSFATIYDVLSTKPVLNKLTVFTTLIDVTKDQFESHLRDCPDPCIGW
Protocol: The selectivity of selected compounds versus Acid Ceramidase (AC) was determined.
Rat AC (r-AC) was cloned from a brain cDNA library using primers based on the sequence obtained from the National Center for Biotechnology Information (NCBI) database: 5′rAC (5′-[…]-3′) (SEQ ID NO:1) and 3′rAC (5′-[…]-3′) (SEQ ID NO:2). The PCR (High Fidelity PCR Master, Roche) product was subcloned into a pEF6-V5/His vector (Invitrogen) to construct a mammalian expression vector encoding V5/His-tagged rat AC. HEK293 cells were transfected with pEF6-rAC-V5/His using Super-Fect reagent (Qiagen) and screened with G418 (0.3 mg/mL). Cells were suspended in 20 mM Tris HCl (pH 7.5) containing 0.32M sucrose, sonicated and centrifuged at 800×g for 15 minutes at 4° C. The supernatants were centrifuged again at 12,000×g for 30 minutes at 4° C. The pellets were suspended in phosphate-buffered saline (PBS) and subjected to 2 freeze-thaw cycles at −80° C. The suspensions were centrifuged at 105,000×g for 1 hour at 4° C. The supernatants containing recombinant AC were kept at −80° C. until use. Protein concentration was measured using the bicinchoninic acid (BCA) assay (Pierce). Recombinant rat AC (50 μg) was preincubated with inhibitors (final DMSO concentration 1%) in assay buffer (100 mM sodium phosphate, 0.1% Nonidet P-40, 150 mM NaCl, 3 mM DTT, 100 mM sodium citrate, pH 4.5) for 30 minutes at 37° C. Reactions were started by the addition of 100 μM N-lauroyl ceramide (Nu-Chek Prep, Elysian, Minn.) and carried on for 30 minutes at 37° C. Reactions were stopped by addition of a mixture of chloroform/methanol (2:1, vol/vol) containing 1 nmol of heptadecanoic acid (HDA; NuChek Prep). The organic phases were collected, dried under N2, and analyzed by LC-MS in the negative-ion mode using […] (HDA) as internal standard (m/z=199 for lauric acid, m/z=269 for HDA). […]. The column temperature was 50° C. Electrospray ionization (ESI) was in the negative mode, capillary voltage as 4 kV, and fragmentor voltage was 100 V. N2 was used as drying gas at a flow rate of 13 L/min and a temperature of 350° C. Nebulizer pressure was set at 60 psi. We monitored [M-H]− in the selected-ion monitoring (SIM) mode using HDA as internal standard. Calibration curves were generated using commercial lauric acid (Nu-Chek Prep; m/z=199).

mice [3] = assay: LPS-induced inflammation (lung); details: for neutrophil migration/infiltration into lung tissue: 6 h and 24 h
Protocol: Mice were anesthetized with ketamine and xylazine (100 and 10 mg/kg, respectively), and were subjected to intranasal instillation of LPS (1 μg/μL) or vehicle (saline 0.9%); the volume used was 1 μL/g body weight. In order to avoid drawing, the weight of each animal was divided by three; therefore each mouse received the respective volume of LPS or vehicle. Ex: animal 1 (24 g) received 3 times an intranasal instillation of 8 μL of LPS solution or vehicle.
The bronchoalveolar lavage and lung samples were collected 6 h or 24 h after the induction of inflammation.

human NAAA = target: T2, human NAAA (Homo sapiens, UniProt Q02083); assay: Fluorogenic h-NAAA assay; type: biochemical
T2 construct: made in house; host or cells: HEK293 cells, stably transfected; soluble lysosomal fraction used as enzyme source
T2 sequence (Q02083 29-359): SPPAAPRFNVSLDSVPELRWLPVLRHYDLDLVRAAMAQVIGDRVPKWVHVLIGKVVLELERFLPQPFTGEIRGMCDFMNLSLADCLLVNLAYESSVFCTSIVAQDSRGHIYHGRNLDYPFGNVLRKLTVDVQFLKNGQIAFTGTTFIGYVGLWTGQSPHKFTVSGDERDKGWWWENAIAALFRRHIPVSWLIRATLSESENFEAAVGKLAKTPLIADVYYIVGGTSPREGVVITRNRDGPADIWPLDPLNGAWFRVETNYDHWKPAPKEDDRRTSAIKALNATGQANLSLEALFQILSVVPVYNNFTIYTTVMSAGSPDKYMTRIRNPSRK
Protocol: Hek293 cells stably transfected with the human NAAA coding sequence cloned from a human spleen cDNA library were used as enzyme source. Recombinant HEK-hNAAA pellets were resuspended in homogenizing buffer, and sonicated. Samples were centrifuged at 800×g for 15 min at 4° C. and the resultant supernatants were then ultracentrifuged at 12,000×g for 30 min at 4° C. The pellets were resuspended in PBS pH 7.4 on ice and subjected to a freeze/thaw cycle at −80° C. The suspension was finally centrifuged at 105,000×g for 1 h at 4° C. Protein concentration was measured and samples aliquoted and stored at −80° C. until use.
The assay was run in Optiplate 96-wells black plates, in a total reaction volume of 200 μL. NAAA protein preparation (4.0 μg) was pre-incubated for 10 min with various concentrations of test compounds or vehicle control (5% DMSO) in 100 mM citrate/phosphate buffer (pH 4.5) containing 3.0 mM DTT, 0.1% Triton X-100, 0.05% BSA, 150 mM NaCl. N-(4-methyl-2-oxo-chromen-7-yl)-hexadecanamide was used as a substrate (5.0 μM) and the reaction carried over for 30 min at 37° C. The samples were then read in a Perkin Elmer Envision plate reader using an excitation wavelength of 360 nm and emission 460 nm. IC50 values were calculated by non-linear regression analysis of log [concentration]/inhibition curves using GraphPad Prism 5 (GraphPad Software Inc., CA—USA) applying a standard slope curve fitting.

r-NAAA = target: T3, r-NAAA (Rattus norvegicus, UniProt Q5KTC7); assay: UPLC/MS r-NAAA assay; type: biochemical
T3 construct: Lysosomal NAAA protein preparation was obtained by homogenizing male Sprague-Dawley rat lungs; tissue Charles River (animals); host or cells: male Sprague-Dawley rat lung, soluble lysosomal fraction
T3 sequence (Q5KTC7 34-362): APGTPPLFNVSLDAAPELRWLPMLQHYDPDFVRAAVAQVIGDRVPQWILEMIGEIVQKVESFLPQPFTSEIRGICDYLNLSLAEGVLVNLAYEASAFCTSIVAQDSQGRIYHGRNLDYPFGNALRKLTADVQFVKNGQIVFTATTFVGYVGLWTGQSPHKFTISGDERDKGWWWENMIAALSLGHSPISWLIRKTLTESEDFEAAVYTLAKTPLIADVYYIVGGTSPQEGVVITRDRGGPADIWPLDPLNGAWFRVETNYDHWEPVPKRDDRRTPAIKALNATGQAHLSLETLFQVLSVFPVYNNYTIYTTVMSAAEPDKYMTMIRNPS

[4] = compound 5 30 mg/kg p.o., dexamethasone 0.5 mg/kg i.p.

IC50 (Rat AC (r-AC); read-out: r-AC UPLC/MS assay IC50): 12500 nM
SMILES: O=C(N[C@H]1CNC1=O)OCCCCC1CCCCC1 [Example 5, 4-Cyclohexylbutyl-N-[(3S)-2-oxoazetidin-3-yl]-carbamate]
TNF-alpha concentration in pulmonary exudate (mice [1]; [4]): normalizes
number of leukocytes (neutrophils) in the pulmonary exudate (FACS) (mice [1]; [4]): normalized
myeloperoxidase (MPO) activity in lung tissue (mice [1]; compound 5 0.1-30 mg/kg p.o., dexamethasone 0.5 mg/kg i.p.): normalizes; also recorded: dose-dependently normalized
increase of TNF-α in the pulmonary exudate (mice [1]; compound 5 0.1-30 mg/kg po): dose-dependently normalized
heat hyperalgesia (mice [2]): reduced; also recorded: markedly attenuated
paw edema (mice [2]): reduced; also recorded: markedly attenuated
LPS induced increase of IL-6, TNF-α and MIP-2/CXCL2 in tissue and BAL (mice [3]; 30 mg/kg po, at 6 hr): significantly reduced
neutrophil migration/infiltration into lung tissue (mice [3]; LPS, 30 mg/kg po, listed as Compound 5, 30 mg/kg): prevented
neutrophil migration/infiltration into lung tissue (mice [3]; LPS, 30 mg/kg po, listed as compound 5, 30 mg/kg): prevents
production of cytokines/chemokines in BAL and lung tissue (mice [3]; LPS, compound 5 30 mg/kg p.o., 30 min): prevents

SMILES: C[C@@H]1NC(=O)[C@H]1NC(=O)OCc1ccc(C2CCCCC2)cc1 [Example 74, (4-Cyclohexylphenyl)-methyl-N-[(2S,3S)-2-methyl-4-oxo-azetidin-3-yl]-carbamate]
inhibition at 10 µM (Rat AC (r-AC); read-out: r-AC UPLC/MS assay % inhib.): 20%
IC50 (human NAAA): 107 nM
IC50 (r-NAAA): 46 nM

Source: US9828338B2, “Carbamate derivatives of lactam based N-acylethanolamine acid amidase (NAAA) inhibitors” (The Regents of the University of California, priority 2013, dated 2017)
